Patent US20230355646A1, “AUTOPHAGY ACTIVATOR” (Resonac Corporation, priority 2020, published 2023)

Tested on: ATG7 gene
Experiment: ATG7 gene expression promoting effect in human senescent fibroblasts (quantitative real-time PCR)
Assay type: cell-based
Experimental: Normal human fibroblasts (NB1RGB, RIKEN BRC Cell Bank) were cultured until confluent in D-MEM medium (manufactured by Sigma-Aldrich) to which 10% fetal bovine serum (manufactured by MP Biomedicals) was added. Thereafter, the cells were treated with 250 μM aqueous hydrogen peroxide for 2 hours, and cultured for 24 hours in D-MEM medium to which fresh 10% fetal bovine serum was added. The treatment with aqueous hydrogen peroxide and the cell culture operation were repeated three times, and the obtained fibroblasts were used as senescent fibroblasts.
The prepared senescent fibroblasts were prepared at a seeding density of 10000 cells/cm^2 and cultured for 24 hours in D-MEM medium (manufactured by Sigma-Aldrich) to which 10% fetal bovine serum (manufactured by MP Biomedicals) was added. […]
Then, using Nucleospin (registered trademark) RNA kit (manufactured by Takara Bio Inc.), RNA was extracted from senescent fibroblasts or normal human fibroblasts in each example, and cDNA was synthesized from the obtained RNA. Next, using this cDNA as a template, by quantitative real-time PCR, the expression level of each gene was quantified using primers (manufactured by Takara Bio Inc.) specific to the LC3 gene, ATG5 gene, and ATG7 gene, respectively. […]

## COc1ccc([C@@H]2CC(=O)c3c(O)cc(O[C@@H]4O[C@H](CO[C@@H]5O[C@@H](C)[C@H](O)[C@@H](O)[C@H]5O)[C@@H](O)[C@H](O)[C@H]4O)cc3O2)cc1O [Comparative Example 2, hesperidin]
10^−2% (V/V) methyl hesperidin or hesperidin, additional ingredient where in the example, 24 hours, Comparative Example 1 (DMSO) = 1.00
  Relative gene expression level ATG7: 0.76
Compared to DMSO only of Comparative Example 1
  expression level of the ATG7 gene (in words): more decreased
